The series in a line: Absorbance at photostationary state (PSS) under simulated sunlight or 365 nm light. Type of series: physicochemical. Further details: λ max: unit not given here. The conditions noted are these: for Absorbance at PSS, 365 nm: 365 nm light source; for Absorbance at PSS, 365 nm / Absorbance at PSS, full / Absorbance at PSS, +UV / λ max: 2.0×10^−5 M in triglyme; for sensitivity index: ratio of PSS under 365 nm light to PSS under full spectrum light (without UV blocking film); for Absorbance at PSS, full: simulated sunlight (QSUN solar simulator), no UV blocking film; for Absorbance at PSS, +UV: simulated sunlight with UV blocking film (cutoff 370 nm); for λ max: wavelength of maximum absorbance in the visible range, ring-closed isoform. As to the method:
Absorbance at a PSS for selected compounds was measured at 2.0×10^−5 M in triglyme in the absence (full) or presence (+UV) of a UV blocking film with a UV cutoff wavelength of 370 nm (10% transmission at 370 nm), using simulated sunlight (QSUN solar simulator) as a light source, or a 365 nm light source; these PSS are reported in Tables 1.5. […] “Switch” refers to the ability (yes or no) of the compound to be reversibly converted under photochromic and electrochromic conditions between a ring-open isomer and ring-closed isomer.
A sensitivity index (SI) is a ratio of the PSS under 365 nm light to the PSS under full spectrum light (without UV blocking film). SI is an indicator of the sensitivity of the compound to the composition of the incident light (a change in the ratio of UV and visible components)—photochemical ring-opening is induced by a portion of the visible light spectrum.
Photostationary State (PSS) UV/Vis spectra are obtained using an OceanOptics™ Spectrophotometer until absorption in the visible region of the spectrum stabilizes. A 2×10^−5M solution of compound in solvent is prepared, and photofaded using visible light until absorption in the visible region of the spectrum stabilizes. The sample is then irradiated with simulated sunlight (QSUN SS-150 Solar Simulator with xenon arc lamp) until the absorption spectrum stabilizes. To obtain PSS in the presence of a UV blocking film, a second sample is prepared and irradiated as described, with a UV blocking film inserted in the light path when irradiating.

Data on 17 compounds can be found in patent US10072023B2, “Diarylethene compounds and uses thereof” (SWITCH MATERIALS, INC., priority 2011, dated 2018).

SMILES strings stand for the structures.

On to `FC1(F)C(c2cc(-c3ccccc3)sc2-c2ccccc2)=C(c2cc(-c3cccs3)sc2-c2cccs2)C(F)(F)C1(F)F` [S005, 3′-(2-(2,5-diphenylthiophen-3-yl)-3,3,4,4,5,5-hexafluorocyclopent-1-en-1-yl)-2,2′:5′,2″-terthiophene], for which the “Absorbance at PSS, 365 nm” value is on record as 0.195; the sensitivity index is on record as 2.71; the “Absorbance at PSS, full” value is 0.072; the “Absorbance at PSS, +UV” value is listed as 0.028. Besides, the λ max was 618.

In the case of `Cc1ccc(-c2cc(C3=C(c4cc(-c5ccc(C)s5)sc4-c4ccc(C)s4)C(F)(F)C(F)(F)C3(F)F)c(-c3ccc(C)s3)s2)s1` [S007, 3′,3″″-(perfluorocyclopent-1-ene-1,2-diyl)bis(5,5″-dimethyl-2,2′:5′,2″-terthiophene)], the “Absorbance at PSS, 365 nm” value is recorded as 0.353; the sensitivity index is on record as 1.67; the “Absorbance at PSS, full” value is given as 0.212; the “Absorbance at PSS, +UV” value was 0.154. Besides, the λ max was 650.

For `FC1(F)C(c2c(-c3ccccc3)sc3ccccc23)=C(c2c(-c3ccccc3)sc3ccccc23)C(F)(F)C1(F)F` [S014, 3,3′-(perfluorocyclopent-1-ene-1,2-diyl)bis(2-phenylbenzo[b]thiophene)], the “Absorbance at PSS, 365 nm” value was 0.011; the sensitivity index is 2.75; the “Absorbance at PSS, full” value is 0.004; the “Absorbance at PSS, +UV” value is 0.006. The same compound registered a λ max of 525.

Regarding `O=C(O)c1ccc(-c2cc(C3=C(c4cc(-c5ccc(C(=O)O)s5)sc4-c4ccc(C(=O)O)s4)C(F)(F)C(F)(F)C3(F)F)c(-c3ccc(C(=O)O)s3)s2)s1` [S024], the “Absorbance at PSS, 365 nm” value is listed as 0.102; the sensitivity index is given as 5.10; the “Absorbance at PSS, full” value is 0.02; the “Absorbance at PSS, +UV” value is 0.018. The same compound showed a λ max of 650.

On to `FC1(F)C(c2cc(-c3ccc(Cl)s3)sc2-c2ccc(Cl)s2)=C(c2cc(-c3ccc(Cl)s3)sc2-c2ccc(Cl)s2)C(F)(F)C1(F)F` [S026, 3′,3″″-(perfluorocyclopent-1-ene-1,2-diyl)bis(5,5″-dichloro-2,2′:5′,2″-terthiophene)], for which the “Absorbance at PSS, 365 nm” value is recorded as 0.383; the sensitivity index is recorded as 1.53; the “Absorbance at PSS, full” value is 0.251; the “Absorbance at PSS, +UV” value was 0.196. The compound further gave a λ max of 645.

Turning to `Cc1ccc(-c2sc(-c3cccs3)cc2C2=C(c3cc(-c4cccs4)sc3-c3ccc(C)s3)C(F)(F)C(F)(F)C2(F)F)s1` [S027, 3′,3″″-(perfluorocyclopent-1-ene-1,2-diyl)bis(5-methyl-2,2′:5′,2″-terthiophene)], the “Absorbance at PSS, 365 nm” value is recorded as 0.281; the sensitivity index is recorded as 1.80; the “Absorbance at PSS, full” value is reported as 0.156; the “Absorbance at PSS, +UV” value is given as 0.116. This compound also came in with a λ max of 645.

As to `Cc1ccc(-c2ccc(-c3cc(C4=C(c5cc(-c6ccc(-c7ccc(C)s7)s6)sc5-c5ccc(C)s5)C(F)(F)C(F)(F)C4(F)F)c(-c4ccc(C)s4)s3)s2)s1` [S034, 3′,3″″′-(perfluorocyclopent-1-ene-1,2-diyl)bis(5,5″′-dimethyl-2,2′:5′,2″:5″,2″′-quaterthiophene)], the “Absorbance at PSS, 365 nm” value is 0.468; the sensitivity index was 1.73; the “Absorbance at PSS, full” value is reported as 0.271; the “Absorbance at PSS, +UV” value is recorded as 0.246. This compound registered a λ max of 690.

For the compound `FC1(F)C(c2nc(-c3ccccc3)sc2-c2ccccc2)=C(c2nc(-c3ccccc3)sc2-c2ccccc2)C(F)(F)C1(F)F` [S035, 4,4′-(perfluorocyclopent-1-ene-1,2-diyl)bis(2,5-diphenylthiazole)], the “Absorbance at PSS, 365 nm” value is given as 0.416; the sensitivity index is 8.32; the “Absorbance at PSS, full” value was 0.05; the “Absorbance at PSS, +UV” value is 0.016. For the same compound, the λ max is on record as 540.

Turning to `Cc1sc(-c2cc(C3=C(c4cc(-c5sc(C)c6c5OCCO6)sc4-c4sc(C)c5c4OCCO5)C(F)(F)C(F)(F)C3(F)F)c(-c3sc(C)c4c3OCCO4)s2)c2c1OCCO2` [S036], the “Absorbance at PSS, 365 nm” value was 0.174; the sensitivity index is 7.25; the “Absorbance at PSS, full” value is 0.024; the “Absorbance at PSS, +UV” value is recorded as 0.016. Further, the λ max is on record as 665.

With `N#Cc1ccc(-c2ccc(-c3cc(C4=C(c5cc(-c6ccc(-c7ccc(C#N)s7)s6)sc5-c5cccs5)C(F)(F)C(F)(F)C4(F)F)c(-c4cccs4)s3)s2)s1` [S037, 4″,4″″″-(perfluorocyclopent-1-ene-1,2-diyl)bis(([2,2′:5′,2″:5″,2″′-quaterthiophene]-5-carbonitrile))], the “Absorbance at PSS, 365 nm” value is reported as 0.442; the sensitivity index is 1.18; the “Absorbance at PSS, full” value was 0.375; the “Absorbance at PSS, +UV” value is reported as 0.355. This compound came in with a λ max of 680.

As for `FC1(F)C(c2cc(-c3ccc(/C=C/c4ccccc4)s3)sc2-c2cccs2)=C(c2cc(-c3ccc(/C=C/c4ccccc4)s3)sc2-c2cccs2)C(F)(F)C1(F)F` [S038, (E)-4′,4″″-(perfluorocyclopent-1-ene-1,2-diyl)bis(5-((E)-styryl)-2,2′:5′,2″-terthiophene)], the “Absorbance at PSS, 365 nm” value is reported as 0.642; the sensitivity index is given as 1.41; the “Absorbance at PSS, full” value was 0.456; the “Absorbance at PSS, +UV” value was 0.431. Besides, the λ max is recorded as 690.

Take `c1ccc(-c2cc(-c3nc(-c4ccccc4)sc3-c3cc(-c4ccccc4)sc3-c3ccccc3)c(-c3ccccc3)s2)cc1` [S055, 4,5-bis(2,5-diphenylthiophen-3-yl)-2-phenylthiazole]: the “Absorbance at PSS, 365 nm” value is 0.191; the sensitivity index is 4.55; the “Absorbance at PSS, full” value was 0.042; the “Absorbance at PSS, +UV” value is listed as 0.008. The same compound registered a λ max of 640.

For the compound `FC1(F)C(c2cc(-c3ccc(Cl)cc3)sc2-c2ccc(Cl)cc2)=C(c2cc(-c3ccc(Cl)cc3)sc2-c2ccc(Cl)cc2)C(F)(F)C1(F)F` [S056, 3,3′-(perfluorocyclopent-1-ene-1,2-diyl)bis(2,5-bis(4-chlorophenyl)thiophene)], the “Absorbance at PSS, 365 nm” value is reported as 0.194; the sensitivity index was 2.73; the “Absorbance at PSS, full” value is 0.071; the “Absorbance at PSS, +UV” value is listed as 0.026. The λ max is 610.

As for `CC(=O)c1ccc(-c2cc(C3=C(c4cc(-c5ccccc5)sc4-c4ccc(C(C)(C)C)cc4)C(F)(F)C(F)(F)C3(F)F)c(-c3ccc(C(C)(C)C)cc3)s2)cc1` [S065, 1-(4-(5-(4-tert-butylphenyl)-4-(2-(2-(4-tert-butylphenyl)-5-phenylthiophen-3-yl)-3,3,4,4,5,5-hexafluorocyclopent-1-enyl)thiophen-2-yl)phenyl)ethanone], the “Absorbance at PSS, 365 nm” value is 0.281; the sensitivity index is reported as 2.04; the “Absorbance at PSS, full” value is on record as 0.138; the “Absorbance at PSS, +UV” value was 0.054. For the same compound, the λ max is on record as 625.

Take `CC(C)(C)c1ccc(-c2sc(-c3ccc(C(C)(C)O)cc3)cc2C2=C(c3cc(-c4ccc(C(C)(C)O)cc4)sc3-c3ccc(C(C)(C)C)cc3)C(F)(F)C(F)(F)C2(F)F)cc1` [S067, 2,2′-((4,4′-(perfluorocyclopent-1-ene-1,2-diyl)bis(5-(4-(tert-butyl)phenyl)thiophene-4,2-diyl))bis(4,1-phenylene))bis(propan-2-ol)]: the “Absorbance at PSS, 365 nm” value was 0.182; the sensitivity index is 2.68; the “Absorbance at PSS, full” value is 0.068; the “Absorbance at PSS, +UV” value is 0.03. For the same compound, the λ max was 615.

For the compound `CC(C)(C)c1ccc(-c2sc(C(C)(C)C)cc2C2=C(c3cc(C(C)(C)C)sc3-c3ccc(C(C)(C)C)s3)C(F)(F)C(F)(F)C2(F)F)s1` [S073, 3,3′-(perfluorocyclopent-1-ene-1,2-diyl)bis(5,5′-di-tert-butyl-2,2′-bithiophene)], the “Absorbance at PSS, 365 nm” value is 0.06; the sensitivity index is on record as 5.71; the “Absorbance at PSS, full” value is on record as 0.0105; the “Absorbance at PSS, +UV” value is on record as 0.006. This compound returned a λ max of 550.

`N#Cc1ccc(-c2cc(C3=C(c4cc(-c5ccc(C#N)cc5)sc4-c4ccc(C#N)cc4)C(F)(F)C(F)(F)C3(F)F)c(-c3ccc(C#N)cc3)s2)cc1` [S074, 3,3′-(perfluorocyclopent-1-ene-1,2-diyl)bis(2,5-bis(4-cyanophenyl)thiophene)]: the “Absorbance at PSS, 365 nm” value was 0.189; the sensitivity index is on record as 2.74; the “Absorbance at PSS, full” value is given as 0.069; the “Absorbance at PSS, +UV” value is reported as 0.024. The compound further gave a λ max of 620.
